The record followed here is ChEMBL document CHEMBL4130611, “Serpulanines A to C, N-Oxidized Tyrosine Derivatives Isolated from the Sri Lankan Fungus Serpula sp.: Structure Elucidation, Synthesis, and Histone Deacetylase Inhibition” (J Nat Prod, 2018).

For orientation: inhibition means the change of the read-out against control, counted positive when it falls. As a reminder, the IC50 is the point on the concentration scale where inhibition reaches its midpoint. A lower IC50 goes with higher potency.

For experiment [1], the target named is Histone deacetylase 9 (Homo sapiens) (UniProt Q9UKV0). Kind of experiment: Inhibition of human HDAC9 at 330 uM by HDAC-Glo1/2 luminescent assay.
Chain of Histone deacetylase 9 (Homo sapiens) (Q9UKV0 whole entry): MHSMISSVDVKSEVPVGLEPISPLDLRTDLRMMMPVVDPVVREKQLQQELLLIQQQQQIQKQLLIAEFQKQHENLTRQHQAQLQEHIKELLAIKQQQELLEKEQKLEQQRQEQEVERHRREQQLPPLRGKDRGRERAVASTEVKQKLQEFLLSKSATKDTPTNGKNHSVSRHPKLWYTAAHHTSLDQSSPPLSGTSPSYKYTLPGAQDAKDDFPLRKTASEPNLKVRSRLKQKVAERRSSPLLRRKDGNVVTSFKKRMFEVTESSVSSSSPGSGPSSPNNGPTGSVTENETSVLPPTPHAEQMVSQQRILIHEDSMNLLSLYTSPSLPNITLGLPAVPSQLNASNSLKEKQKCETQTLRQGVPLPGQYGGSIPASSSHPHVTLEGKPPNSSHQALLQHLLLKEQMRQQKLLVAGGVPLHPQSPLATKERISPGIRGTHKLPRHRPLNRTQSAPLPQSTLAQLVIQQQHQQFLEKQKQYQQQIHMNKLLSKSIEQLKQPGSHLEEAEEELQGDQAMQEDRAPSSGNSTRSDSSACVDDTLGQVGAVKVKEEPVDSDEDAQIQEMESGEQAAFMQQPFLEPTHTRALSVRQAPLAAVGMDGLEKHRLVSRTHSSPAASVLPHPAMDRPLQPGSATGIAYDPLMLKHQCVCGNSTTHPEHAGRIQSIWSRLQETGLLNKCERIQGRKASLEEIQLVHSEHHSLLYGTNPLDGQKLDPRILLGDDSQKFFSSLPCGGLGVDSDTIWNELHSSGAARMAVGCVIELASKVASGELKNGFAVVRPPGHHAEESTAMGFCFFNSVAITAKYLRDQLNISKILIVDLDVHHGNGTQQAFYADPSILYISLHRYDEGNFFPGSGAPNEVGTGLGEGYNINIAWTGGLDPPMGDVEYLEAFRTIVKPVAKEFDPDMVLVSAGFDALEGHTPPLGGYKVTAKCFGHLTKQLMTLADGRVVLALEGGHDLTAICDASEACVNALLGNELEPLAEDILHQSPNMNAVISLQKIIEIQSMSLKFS
For experiment [2], the target named is T1, Protein deacetylase HDAC6 (Homo sapiens) (UniProt Q9UBN7).
T1 sequence (whole entry): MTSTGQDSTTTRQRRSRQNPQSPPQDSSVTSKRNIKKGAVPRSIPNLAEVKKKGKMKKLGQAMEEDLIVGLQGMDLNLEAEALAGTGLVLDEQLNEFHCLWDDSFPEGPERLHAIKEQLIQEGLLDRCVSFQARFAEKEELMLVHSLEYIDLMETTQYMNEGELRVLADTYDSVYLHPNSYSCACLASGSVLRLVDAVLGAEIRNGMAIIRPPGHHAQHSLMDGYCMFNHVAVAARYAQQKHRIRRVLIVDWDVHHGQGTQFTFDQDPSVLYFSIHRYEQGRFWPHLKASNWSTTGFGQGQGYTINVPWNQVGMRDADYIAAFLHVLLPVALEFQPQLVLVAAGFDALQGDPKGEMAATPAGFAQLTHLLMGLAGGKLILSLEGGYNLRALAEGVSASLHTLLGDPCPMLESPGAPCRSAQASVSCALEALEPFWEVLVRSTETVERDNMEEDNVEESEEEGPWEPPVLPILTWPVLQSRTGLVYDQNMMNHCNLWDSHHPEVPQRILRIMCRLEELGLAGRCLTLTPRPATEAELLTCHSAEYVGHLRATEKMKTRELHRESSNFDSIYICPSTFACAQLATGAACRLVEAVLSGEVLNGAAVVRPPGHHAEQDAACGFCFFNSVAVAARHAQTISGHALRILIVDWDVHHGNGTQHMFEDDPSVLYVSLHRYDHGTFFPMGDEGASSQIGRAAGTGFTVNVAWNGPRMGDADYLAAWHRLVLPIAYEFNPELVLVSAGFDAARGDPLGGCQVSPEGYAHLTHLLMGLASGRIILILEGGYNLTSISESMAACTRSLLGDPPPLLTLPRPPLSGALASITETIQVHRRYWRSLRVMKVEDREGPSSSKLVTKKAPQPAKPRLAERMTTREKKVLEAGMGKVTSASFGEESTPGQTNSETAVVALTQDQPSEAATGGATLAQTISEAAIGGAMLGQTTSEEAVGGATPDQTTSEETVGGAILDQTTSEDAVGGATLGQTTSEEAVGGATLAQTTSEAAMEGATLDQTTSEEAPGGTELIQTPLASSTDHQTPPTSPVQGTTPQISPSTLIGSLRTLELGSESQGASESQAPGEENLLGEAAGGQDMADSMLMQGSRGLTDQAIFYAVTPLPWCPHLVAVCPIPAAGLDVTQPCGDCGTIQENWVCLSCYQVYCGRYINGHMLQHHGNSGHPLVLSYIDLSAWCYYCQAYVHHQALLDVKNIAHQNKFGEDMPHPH
Put plainly: Inhibition of human HDAC6 at 330 uM by HDAC-Glo1/2 luminescent assay relative to control.

Experiment [3] has as its system A9. Kind of experiment: (§1) Inhibition of class 2 HDAC in mouse A9 cells after 30 mins by luminescent assay. It is filed as cell-based.
Experiment [4] in a line: as §1. It is filed as cell-based.
The subject of experiment [5] is A9. Kind of experiment: (§2) Inhibition of class 1 HDAC in mouse A9 cells after 30 mins by luminescent assay. It is filed as cell-based.
The nature of experiment [6]: as §2. The experiment is classed as cell-based.

Active and inactive are the calls of the source. No cut-off for these calls is given here.

As to `COC(=O)C(Cc1ccc(OCC=C(C)C)cc1)N(O)C(=O)/C(C)=N/O` (stereo unspecified), the inhibition entry in experiment [1] was “inactive”. The same molecule registered an inhibition in experiment [2] of 69%.

Regarding `CC(C)=CCOc1ccc(C/C(=N\O)C(=O)NO)cc1`, the inhibition result with A9 [3] and in the experiment with A9 [5] was “Dose-dependent effect” each time. Further, the IC50 in experiment [4] and in experiment [6] was 7 µM each time.
